Source: publication PMC7587962, “Evaluation of Cytotoxicity and α-Glucosidase Inhibitory Activity of Amide and Polyamino-Derivatives of Lupane Triterpenoids” (Molecules, 2020)

Experiments:
786-0 = assay: NCI-60 SRB screen: renal cancer 786-0; type: cell-based, human
SNB-19 = assay: NCI-60 SRB screen: CNS cancer SNB-19; type: cell-based, human
TK-10 = assay: NCI-60 SRB screen: renal cancer TK-10; type: cell-based, human
SK-MEL-2 = assay: NCI-60 SRB screen: melanoma SK-MEL-2; type: cell-based, human
MCF7 = assay: NCI-60 SRB screen: breast cancer MCF7; type: cell-based; details: Homo sapiens, MCF7, 48 h
A549/ATCC = assay: NCI-60 SRB screen: non-small cell lung cancer A549/ATCC; type: cell-based, human
HOP-62 = assay: NCI-60 SRB screen: non-small cell lung cancer HOP-62; type: cell-based, human
UO-31 = assay: NCI-60 SRB screen: renal cancer UO-31; type: cell-based, human
SN12C = assay: NCI-60 SRB screen: renal cancer SN12C; type: cell-based, human
U251 = assay: NCI-60 SRB screen: CNS cancer U251; type: cell-based; details: Homo sapiens, U-251, 48 h
MDA-MB-468 = assay: NCI-60 SRB screen: breast cancer MDA-MB-468; type: cell-based, human; details: for GI50: five concentrations, 48 h, SRB
SF-268 = assay: NCI-60 SRB screen: CNS cancer SF-268; type: cell-based, human
HCT-15 = assay: NCI-60 SRB screen: colon cancer HCT-15; type: cell-based, human
CNS cancer subpanel = assay: NCI-60 screen, subpanel CNS cancer
LOX IMVI = assay: NCI-60 SRB screen: melanoma LOX IMVI; type: cell-based, human
SK-MEL-5 = assay: NCI-60 SRB screen: melanoma SK-MEL-5; type: cell-based, human
M14 = assay: NCI-60 SRB screen: melanoma M14; type: cell-based, human
NCI-H522 = assay: NCI-60 SRB screen: non-small cell lung cancer NCI-H522; type: cell-based, human
CCRF-CEM = assay: NCI-60 SRB screen: leukemia CCRF-CEM; type: cell-based; details: Homo sapiens, 48 h
RPMI-8226 = assay: NCI-60 SRB screen: leukemia RPMI-8226; type: cell-based; details: Homo sapiens, RPMI-8226, 48 h
SW-620 = assay: NCI-60 SRB screen: colon cancer SW-620; type: cell-based; details: Homo sapiens, SW-620, 48 h
NCI-H226 = assay: NCI-60 SRB screen: non-small cell lung cancer NCI-H226; type: cell-based, human
OVCAR-8 = assay: NCI-60 SRB screen: ovarian cancer OVCAR-8; type: cell-based, human
SF-295 = assay: NCI-60 SRB screen: CNS cancer SF-295; type: cell-based, human
UACC-62 = assay: NCI-60 SRB screen: melanoma UACC-62; type: cell-based, human
OVCAR-4 = assay: NCI-60 SRB screen: ovarian cancer OVCAR-4; type: cell-based; details: Homo sapiens, OVCAR-4, 48 h
IGROV1 = assay: NCI-60 SRB screen: ovarian cancer IGROV1; type: cell-based, human
SK-MEL-28 = assay: NCI-60 SRB screen: melanoma SK-MEL-28; type: cell-based, human
[1] = system: 60 human tumor cell lines; details: single dose 10 µM
HCC-2998 = assay: NCI-60 SRB screen: colon cancer HCC-2998; type: cell-based, human
SNB-75 = assay: NCI-60 SRB screen: CNS cancer SNB-75; type: cell-based, human
Ovarian Cancer subpanel = assay: NCI-60 screen, subpanel Ovarian Cancer
SR = assay: NCI-60 SRB screen: leukemia SR; type: cell-based; details: Homo sapiens, 48 h
HS 578T = assay: NCI-60 SRB screen: breast cancer HS 578T; type: cell-based, human
DU-145 = assay: NCI-60 SRB screen: prostate cancer DU-145; type: cell-based, human
HCT-116 = assay: NCI-60 SRB screen: colon cancer HCT-116; type: cell-based; details: Homo sapiens, HCT-116, 48 h
[2] = read-out: Percentage Cell Growth

Compound: C=C(C)[C@@H]1CC[C@]2(C(N)=O)CC[C@]3(C)[C@H](CC[C@@H]4[C@@]5(C)CC[C@H](O)C(C)(C)[C@@H]5CC[C@]43C)[C@@H]12 [Compound 5]
- Percentage Cell Growth (786-0; 786-0, single dose 10 µM): −72.16%
- GI50 (786-0; Homo sapiens, 786-0, 48 h): 2.03 µM
- GI50 (SNB-19; Homo sapiens, SNB-19, 48 h): 4.57 µM
- Percentage Cell Growth (SNB-19; SNB-19, single dose 10 µM): 1.30%
- GI50 (TK-10; Homo sapiens, TK-10, 48 h): 2.79 µM
- Percentage Cell Growth (TK-10; TK-10, single dose 10 µM): −69.84%
- GI50 (SK-MEL-2; Homo sapiens, SK-MEL-2, 48 h): 7.63 µM
- Percentage Cell Growth (SK-MEL-2; SK-MEL-2, single dose 10 µM): −31.18%
- GI50 (MCF7): 2.91 µM
- activity at 10 µM (MCF7; [2]): -12.5%
- Percentage Cell Growth (A549/ATCC; A549/ATCC, single dose 10 µM): −69.33%
- GI50 (A549/ATCC; Homo sapiens, A549, 48 h): 2.11 µM
- Percentage Cell Growth (HOP-62; HOP-62, single dose 10 µM): −72.18%
- GI50 (HOP-62; Homo sapiens, HOP-62, 48 h): 3.21 µM
- GI50 (UO-31; Homo sapiens, UO-31, 48 h): 1.72 µM
- Percentage Cell Growth (UO-31; UO-31, single dose 10 µM): −100.00%
- GI50 (SN12C; Homo sapiens, 48 h): 3 µM
- Percentage Cell Growth (SN12C; single dose 10 µM): −45.76%
- GI50 (U251): 2.54 µM
- activity at 10 µM (U251; [2]): -69.3%
- GI50 (MDA-MB-468; Homo sapiens, MDA-MB-468, 48 h): 1.97 µM
- GI50 (MDA-MB-468): 3.2 µM
- Percentage Cell Growth (MDA-MB-468; single dose 10 µM): −56.03%
- GI50 (SF-268; Homo sapiens, SF-268, 48 h): 4.34 µM
- Percentage Cell Growth (SF-268; SF-268, single dose 10 µM): 4.41%
- Percentage Cell Growth (HCT-15; HCT-15, single dose 10 µM): 6.36%
- GI50 (HCT-15; Homo sapiens, HCT-15, 48 h): 3.28 µM
- MID b, average sensitivity of all cell line of particular subpanel (CNS cancer subpanel): 3.23 µM
- Selectivity, ratio MID a: MID b (CNS cancer subpanel): 1.14
- GI50 (LOX IMVI; Homo sapiens, 48 h): 1.77 µM
- Percentage Cell Growth (LOX IMVI; single dose 10 µM): −72.80%
- GI50 (SK-MEL-5; Homo sapiens, SK-MEL-5, 48 h): 5.22 µM
- Percentage Cell Growth (SK-MEL-5; SK-MEL-5, single dose 10 µM): −39.59%
- GI50 (M14; Homo sapiens, M14, 48 h): 6.05 µM
- Percentage Cell Growth (M14; M14, single dose 10 µM): 8.80%
- GI50 (NCI-H522; Homo sapiens, NCI-H522, 48 h): 3.13 µM
- Percentage Cell Growth (NCI-H522; NCI-H522, single dose 10 µM): −53.76%
- GI50 (CCRF-CEM): 4.49 µM
- activity at 10 µM (CCRF-CEM; [2]): 3.11%
- GI50 (RPMI-8226): 3.53 µM
- activity at 10 µM (RPMI-8226; [2]): -19.8%
- GI50 (SW-620): 3.88 µM
- activity at 10 µM (SW-620; [2]): -4.49%
- GI50 (NCI-H226; Homo sapiens, NCI-H226, 48 h): 4.11 µM
- Percentage Cell Growth (NCI-H226; NCI-H226, single dose 10 µM): −50.47%
- GI50 (OVCAR-8; Homo sapiens, OVCAR-8, 48 h): 3.12 µM
- Percentage Cell Growth (OVCAR-8; OVCAR-8, single dose 10 µM): −64.82%
- GI50 (SF-295; Homo sapiens, SF-295, 48 h): 3.39 µM
- Percentage Cell Growth (SF-295; SF-295, single dose 10 µM): −57.70%
- GI50 (UACC-62; Homo sapiens, UACC-62, 48 h): 4.2 µM
- Percentage Cell Growth (UACC-62; UACC-62, single dose 10 µM): −23.23%
- GI50 (OVCAR-4): 3.54 µM
- GI50 (IGROV1; Homo sapiens, IGROV-1, 48 h): 3.32 µM
- Percentage Cell Growth (IGROV1; IGROV1, single dose 10 µM): −58.08%
- GI50 (SK-MEL-28; Homo sapiens, SK-MEL-28, 48 h): 1.09 µM
- Percentage Cell Growth (SK-MEL-28; SK-MEL-28, single dose 10 µM): 0.38%
- cancer cell lethality, range of percentage growth ([1]; cell lines with negative growth): −1.70% to −100%
- cases of cancer cell lethality ([1]; number of cell lines): 49
- Percentage Cell Growth (HCC-2998; HCC-2998, single dose 10 µM): −39.02%
- GI50 (HCC-2998; Homo sapiens, HCC 2998, 48 h): 3.96 µM
- GI50 (SNB-75; Homo sapiens, SNB-75, 48 h): 2.74 µM
- Percentage Cell Growth (SNB-75; SNB-75, single dose 10 µM): −39.09%
- MID b, average sensitivity of all cell line of particular subpanel (Ovarian Cancer subpanel): 3.88 µM
- Selectivity, ratio MID a: MID b (Ovarian Cancer subpanel): 0.95
- GI50 (SR): 4.14 µM
- activity at 10 µM (SR; [2]): 15.5%
- Percentage Cell Growth (HS 578T; HS 578T, single dose 10 µM): −1.70%
- GI50 (HS 578T; Homo sapiens, Hs-578T, 48 h): 5.74 µM
- Percentage Cell Growth (DU-145; DU-145, single dose 10 µM): −32.96%
- GI50 (DU-145; Homo sapiens, DU-145, 48 h): 3.21 µM
- GI50 (HCT-116): 1.97 µM
- activity at 10 µM (HCT-116; [2]): -24.8%
